Assay results from patent publication US8524302B2, “Natural flavour enhancers and methods for making same” (Pepsico, priority 2009, dated 2013).
“Also recorded” adds a separate entry of the source.

Legend:
Type in all cases: in vivo
sensory panel [1] = experiment: Sensory (triangle) tests of the compounds in water; conditions: for Sensory descriptors: pH 6.5; for Intensity (0-5): pH 6.5, aroma and taste intensity, scale 0-5; for kokumi sensation (in words): without inducing or glutamate-containing composition
Protocol: (§1) Unless otherwise indicated, all sensory tests for the samples are determined using triangle tests (Wieser and Belitz, Z. Lebensm. Unters. Forsch., 1975, 159, 65-72) in three different sessions. The sensory panel is trained to evaluate aqueous solutions (2 mL each) of the following reference taste compounds dissolved in bottled water with a pH of 6.0: sucrose (25 mmol/L) for sweet taste; lactic acid (20 mmol/L) for sour taste; NaCl (30 mmol/L) for salty taste; caffeine (1 mmol/L) for bitter taste; and MSG (3 mmol/L) for umami taste, tannic acid (0.05%) for puckering astringency, and quercetin-O-β-D-glucopyranoside (0.01 mmol/L) for a velvety astringent, mouth-drying oral sensation. For the training of viscosity, a gelatin solution (0.5% in water) was used. […] Sensory analyses were performed in a sensory panel room at 19-22° C. in three different sessions using nose clamps.
(§2) For recording the taste profiles, samples are prepared as indicated in the examples below. Flavor profiles of samples are determined in a triangle test in three different sessions. Panelists refrain from eating or drinking for at least 1 hour prior to the session. At the start of the session and before each trial, the subjects rinsed with water and expectorated. The participants receive a set of two blanks and one taste sample. Liquids are swirled around in the mouth briefly and expectorated. […] Each sample with additive is compared to two reference samples without additives. Kokumi intensity is rated according to a scale from 0 to 5 (with 5 being the most intensive). Punch refers to an initial kokumi sensation experienced in the mouth within 0-3 seconds from the time when a food or liquid is put in the mouth, while long-lasting refers to kokumi felt after 10-60 seconds therefrom.
Sensory (triangle) tests are performed by dissolving the listed compounds in water (Evian®). Additives are added as specified in table below. The pH-value of all samples is adjusted to 6.5 using formic acid (0.1 mol/L) or sodium hydroxide (0.1 mol/L). For each sample, aroma and taste intensity is rated and panelists are asked to describe sensory characteristics.

sensory panel [2] = experiment: Sensory tests (organoleptic evaluation) of compounds added to inducing compositions; conditions: for kokumi sensation / flavour enhancing sensation (in words): added to various inducing compositions or foods; for kokumi sensation (in words): after undergoing an Amadori reaction
From the text: Sensory tests subjecting the flavour enhancing compounds to organoleptic evaluation indicate that the isolated flavouring compounds are substantially tasteless in the form of an aqueous solution, but are useful for imparting the enhanced effects when added even in small amounts to certain inducing compositions or food products containing a glutamate and/or nucleic acid as further described below. […] The thresholds given herein are meant to reflect minimum amounts for use in chicken broth as a matrix; however, one skilled in the art, armed with this disclosure, will recognize that this amount can be adjusted, either higher or lower, dependent upon the matrix used and the desired intensity of the kokumi effect. In general, a certain amount of salt is also necessary to achieve the kokumi effect; typically, about 12 mmol/L, which is found naturally in nearly all food products. The compounds can be applied to different kinds of foods including without limitation snacks, soups, cereals, sauces, fish, and fish paste. Unless otherwise indicated, all sensory tests for the samples are determined using triangle tests ([…] and Belitz, Z. Lebensm. Unters. Forsch., 1975, 159, 65-72) in three different sessions. The sensory panel is trained to evaluate aqueous solutions (2 mL each) of the following reference taste compounds dissolved in bottled water with a pH of 6.0: sucrose (25 mmol/L) for sweet taste; lactic acid (20 mmol/L) for sour taste; NaCl (30 mmol/L) for salty taste; caffeine (1 mmol/L) for bitter taste; and MSG (3 mmol/L) for umami taste, tannic acid (0.05%) for puckering astringency, and quercetin-O-β-D-glucopyranoside (0.01 mmol/L) for a velvety astringent, mouth-drying oral sensation. For the training of viscosity, a gelatin solution (0.5% in water) was used. […] Sensory analyses were performed in a sensory panel room at 19-22° C. in three different sessions using nose clamps. For recording the taste profiles, samples are prepared as indicated in the examples below. Flavor profiles of samples are determined in a triangle test in three different sessions. Panelists refrain from eating or drinking for at least 1 hour prior to the session. At the start of the session and before each trial, the subjects rinsed with water and expectorated. The participants receive a set of two blanks and one taste sample. Liquids are swirled around in the mouth briefly and expectorated. […] Each sample with additive is compared to two reference samples without additives.

sensory panel [3] = experiment: Sensory (triangle) tests: kokumi intensity in chicken broth; conditions: for Kokumi intensity (0-5): pH 6.5, scale 0-5 (blank = 2)
Protocol: as §1, §2
Sensory (triangle) tests are performed by dilution of 3 grams of chicken broth concentrate (Gourmet Bouillon Huhn; Maggi, Singen, Germany) with 100 mL water (Evian®). Additives are added as specified in table below. The pH-value of all samples is adjusted to 6.5 using formic acid (0.1 mol/L) or sodium hydroxide (0.1 mol/L). […] For each sample, kokumi intensity is rated and panelists were asked to describe sensory characteristics.

| Structure (SMILES) | Sensory descriptors (sensory panel [1]; additive 10 mmol/L) | Intensity (0-5) (sensory panel [1]; additive 10 mmol/L) | kokumi sensation (in words) (sensory panel [1]) | kokumi sensation / flavour enhancing sensation (in words) (sensory panel [2]) | Kokumi intensity (0-5) (sensory panel [3]; additive 10 mmol/L) | Sensory descriptors (sensory panel [1]; additive 5 mmol/L) | Intensity (0-5) (sensory panel [1]; additive 5 mmol/L) | kokumi sensation / flavour enhancing sensation (in words) (sensory panel [2]; listed as formula (I)) | kokumi effect (in words) (sensory panel [3]; Table 10) | Kokumi intensity (0-5) (sensory panel [3]; additive 5 mmol/L) | kokumi sensation (in words) (sensory panel [2]) |
| --- | --- | --- | --- | --- | --- | --- | --- | --- | --- | --- | --- |
| C/C=C/SC[C@H](NC(=O)CC[C@H](NC(=O)[C@H](CS/C=C/C)NC(=O)CC[C@H](N)C(=O)O)C(=O)O)C(=O)O [γ-L-glutamyl-(E)-S-1-propenyl-L-cysteinyl-γ-L-glutamyl-(E)-S-1-propenyl-L-cysteine] | flavourless | 0 | no kokumi sensation | strong flavour enhancing sensation | 3.3 | – | – | – | – | – | – |
| CC=CSCC(NC(=O)CCC(N)C(=O)O)C(=O)NC(C[S+]([O-])C=CC)C(=O)O (racemic) [γ-L-glu-(E)-S-(propen-1-yl)-L-cys-(E)-S-(propen-1-yl)-L-cys-(+/−)-SO] | – | – | no kokumi sensation | – | – | flavourless | 0 | strong kokumi sensation; also recorded: surprisingly highly potent kokumi effect; also recorded: strong flavour enhancing sensation | surprisingly potent kokumi effect | 4.5 | – |
| C/C=C/SC[C@H](NC(=O)CC[C@H](N)C(=O)O)C(=O)O [γ-L-glutamyl-(E)-S-1-propenyl-L-cysteine] | onion aroma | 0.5 | – | – | 3.3 | – | – | – | – | – | good kokumi sensation |
| C=CCSC[C@H](N)C(=O)O [S-allyl-L-cysteine] | – | 1 | – | – | 3.3 | – | – | – | – | – | good kokumi sensation |
